Source: ChEMBL document CHEMBL1152844, “Synthesis and anti-HIV studies of 2- and 3-adamantyl-substituted thiazolidin-4-ones” (Eur J Med Chem, 2009)
The source made the active and inactive calls. The calls are words filed in the database; no cut-off is given here.

How the values were obtained:
[1] = Selectivity index, ratio of CC50 for human CEM cells to EC50 for HIV1 3B; format: toxicity, cell-based, CCRF-CEM; conditions: read-out: Ratio CC50/EC50
Vaccinia virus = assay: Antiviral activity against Vaccinia virus infected in HEL cells; format: functional, organism-based; conditions: Orthopoxvirus vaccinia
Coxsackievirus B4 [2] = assay: Antiviral activity against Coxsackievirus B4 infected in human HeLa cells; format: functional, organism-based
Influenza A virus [3] = assay: Antiviral activity against Influenza virus type A H3N2 infected in MDCK cells; format: functional, organism-based
Human alphaherpesvirus 1 = assay: Antiviral activity against Herpes simplex virus type 1 infected in HEL cells; format: functional, organism-based
CCRF-CEM = assay: Cytotoxicity against HIV-infected human CEM cells; format: cell-based; conditions: ccrf-cem
Sindbis virus = assay: Antiviral activity against Sindbis virus infected in african green monkey Vero cells; format: functional, organism-based
[4] = test system: Vesicular stomatitis virus; assay: Antiviral activity against Vesicular stomatitis virus infected in human HeLa cells; format: functional, organism-based
[5] = test system: Vesicular stomatitis virus; assay: Antiviral activity against Vesicular stomatitis virus infected in HEL cells; format: functional, organism-based
Influenza A virus [6] = assay: Antiviral activity against Influenza virus type A H1N1 infected in MDCK cells; format: functional, organism-based
Human respirovirus 3 = assay: Antiviral activity against Parainfluenza virus type 3 infected in african green monkey Vero cells; format: functional, organism-based
Influenza B virus = assay: Antiviral activity against Influenza virus type B infected in MDCK cells; format: functional, organism-based
Punta Toro virus = assay: Antiviral activity against Punta Toro virus infected in african green monkey Vero cells; format: functional, organism-based
[7] = test system: Human immunodeficiency virus 1; assay: Antiviral activity against HIV1 3B infected in human CEM cells assessed as inhibition of virus-induced cytopathicity after 4 days; format: functional, organism-based; conditions: Human immunodeficiency virus 1, 3B, CCRF-CEM, 96 h
[8] = test system: Human immunodeficiency virus 2; assay: Antiviral activity against HIV2 ROD infected in human CEM cells assessed as inhibition of virus-induced cytopathicity after 4 days; format: functional, organism-based; conditions: Human immunodeficiency virus 2, ROD, CCRF-CEM, 96 h
[9] = test system: Respiratory syncytial virus; assay: Antiviral activity against Respiratory syncytial virus infected in human HeLa cells; format: functional, organism-based
[10] = test system: Mammalian orthoreovirus 1; assay: Antiviral activity against Reovirus 1 infected in african green monkey Vero cells; format: functional, organism-based
Human alphaherpesvirus 2 = assay: Antiviral activity against Herpes simplex virus type 2 infected in HEL cells; format: functional, organism-based
Coxsackievirus B4 [11] = assay: Antiviral activity against Coxsackievirus B4 infected in african green monkey Vero cells; format: functional, organism-based
Feline coronavirus = assay: Antiviral activity against Feline coronavirus infected in crandel feline kidney cells; format: functional, organism-based

Row | Compound | selectivity ratio [1] | Activity (Vaccinia virus) | Activity (Coxsackievirus B4 [2]) | Activity (Influenza A virus [3]) | Activity (Human alphaherpesvirus 1) | CC50 (CCRF-CEM) [µM] | Activity (Sindbis virus) | Activity [4] | Activity [5] | Activity (Influenza A virus [6]) | Activity (Human respirovirus 3) | Activity (Influenza B virus) | Activity (Punta Toro virus) | EC50 [7] [µM] | EC50 [8] [µM] | Activity [9] | Activity [10] | Activity (Human alphaherpesvirus 2) | Activity (Coxsackievirus B4 [11]) | Activity (Feline coronavirus)
1 | Cc1cccc(N2C(=O)CSC2CC23CC4CC(CC(C4)C2)C3)n1 (stereo not given) | 1.9 | inactive | inactive | inactive | inactive | 35 | inactive | inactive | inactive | inactive | inactive | inactive | inactive | 17.8 | 21.9 | inactive | inactive | inactive | inactive | inactive
2 | Cc1cc(C)nc(N2C(=O)CSC2C23CC4CC(CC(C4)C2)C3)n1 (stereo not given) | 182 | inactive | inactive | inactive | inactive | 122 | inactive | inactive | inactive | inactive | inactive | inactive | inactive | 0.67 | ≥ 58 | inactive | inactive | inactive | inactive | inactive
3 | Cc1ccnc(N2C(=O)CSC2C23CC4CC(CC(C4)C2)C3)n1 (stereo not given) | 30 | inactive | inactive | inactive | inactive | 136 | inactive | inactive | inactive | inactive | inactive | inactive | inactive | 4.5 | > 60.7 | inactive | inactive | inactive | inactive | inactive
4 | O=C1CSC(c2c(F)cccc2Cl)N1CC12CC3CC(CC(C3)C1)C2 (stereo not given) | 10 | inactive | inactive | inactive | inactive | 20.2 | inactive | inactive | inactive | inactive | inactive | inactive | inactive | 2 | ≥ 10.5 | inactive | inactive | inactive | inactive | inactive
5 | Cc1cc(Cl)nc(N2C(=O)CSC2C23CC4CC(CC(C4)C2)C3)n1 (stereo not given) | < 5 | inactive | inactive | inactive | inactive | > 275 | inactive | inactive | inactive | inactive | inactive | inactive | inactive | ≥ 54.9 | 120 | inactive | inactive | inactive | inactive | inactive
